Data taken from US20070117842A1, “Polymorph of 4-[3-chloro-4-(cyclopropylaminocarbonyl)aminophenoxy]-7-methoxy-6- quinolinecarboxamide and a process for the preparation of the same” (priority 2003, published 2007).
In brackets after ≈: the same amount, converted by molar mass.

Assays:
Assay type in all cases: physicochemical
[1] = Hygroscopicity test by a desiccator method; details: for water content: Karl Fischer method
Method: (Hygroscopicity Test by a Desiccator Method) The hygroscopicities of the crystals obtained in Examples 1d and 2d were evaluated by a desiccator method. […] Weighing bottles (in opened caps) were used for containers, and MIR-552 (Sanyo) was used for a storage apparatus. [table] The powder X-ray diffraction analysis was carried out under the following conditions. The water content was measured (by the Karl Fischer method) by using the following apparatus and reagents.

[2] = Hygroscopicity test by microbalance method; details: 25° C.
Method: (Hygroscopicity Test by Microbalance Method)
The higroscopicities of the crystals obtained in Examples 1d and 2d were evaluated by microbalance method. An apparatus and conditions employed were as follows.
Apparatus: Integrated microbalance system MB 300W (VTI Co.)
Relative humidity step: 5 to 95 by 5
Equilibrium Criteria: 0.0050 wt % (5 minutes)
Maximum equilibrium time: 120 minutes
The results of measuring the higroscopicities of the crystals obtained in Examples 1d and 2d by microbalance method are shown in FIGS. 13 and 14, respectively. As is seen from the results shown in these figures, within the range of 5-95% of relative humidity, the polymorph (A) gave a weight change of 1% and the polymorph (B) gave that of 1.5%.

[3] = Solid stability test (1 month storage; appearance, water content, HPLC purity and residual ratio, powder X-ray diffraction); details: for impurity / remaining percent: HPLC; for water content: Karl Fischer method
Method: (Solid Stability Test) The solid stabilities of the crystal obtained in Examples 1d and 2d were evaluated. […] The water content measurement and the powder X-ray diffraction measurement were carried out by the same method as described in the hygroscopicity test by the dessiccator method. Further, the purity test and the residual ratio (percent) measurement by HPLC were carried out by the same method as described above, except for the condition that the column temperature was 35° C. In this connection, the residual ratio (percent) (measurement by HPLC) was defined as stated bellow by using the crystal stored under the condition C as the standard and its solution as the standard solution. Remaining percent (%)=[(Peak area of the sample solution)×(Weighed amount of the standard: in terms of a dehydrate (mg))]×100/[(Peak area of the standard solution)×(Weighed amount of the sample: in terms of a dehydrate (mg))] [table]

[4] = Solubility test (pH 3, Britton Robinson buffer); details: for pH of the filtrate: solubility test
Method: (Solubility Test) The solubilities (pH 3) of the crystals obtained in Examples 1d and 2d were evaluated by the following method. About 3 mg of the crystals obtained in Examples 1d and 2d were weighed and each of them was put in a 10 mL screw-capped transparent test tube. 5 mL of a buffer solution (Britton Robinson buffer, pH 3.091, ionic strength I=0.3) was added to each of the test tubes to prepare the test solutions. The test tubes were wrapped with aluminum foil to shield from light, and shaken by a shaker (MS-1 Iuchi Seieido) in the following conditions. Temperature: 25-26° C. (a temperature in a laboratory) Shaking frequency: 150 times/minute Shaking time: 3 hours and 5 hours Respective sample solutions after shaking were filtered ([…], Sample LCR13-LG, Millipore Co.), and each 1 mL of the initial filtrate was discarded. Each of accurately pipetted 1 mL of the filtrates was put in a 10 mL test tube, to which accurately pipetted 1 mL of a mixed solution of water/acetonitrile (1:1 (v/v)) was added to prepare a solution for the HPLC analysis. The HPLC conditions were as follows. A standard solution for the HPLC analysis were prepared as follows. About 10 mg of the crystals obtained in Example 2d was accurately weighed, to which a mixed solution of water/acetonitrile/ammonium acetate (100:100:0.1, v/v/w) was added to give accurate 100 mL to prepare a stock standard solution. Accurately pipetted 5 mL of the stock control solution was added with a mixed solution of water/acetonitrile/ammonium acetate (100:100:0.1, v/v/w) to give accurate 25 mL to prepare the standard solution for the HPLC analysis. Regarding a blank solution, a mixed solution of water/acetonitrile/ammonium acetate (100:100:0.1, v/v/w) was used. The standard solution and respective filtrates were analyzed by HPLC to measure concentrations (mg/mL) of 4-(3-chloro-4-(cyclopropylaminocarbonyl)aminophenoxy)-7-methoxy-6-quinolinecarboxamide in respective filtrates according to the following equation. Concentration (mg/mL)=(Concentration in the standard solution, mg/mL)×[(Peak area in each filtrate)×2/(Peak area in the standard solution)] As is evident from the results, there was no significant difference in the solubility at pH 3 between the polymorphs (A) and (B).

[5] = Crystal transition between polymorphs in heated suspension; details: 60° C., 3 hours, listed as polymorph (A)
Method: These suspensions were filtered to collect 4-(3-chloro-4-(cyclopropylaminocarbonyl)aminophenoxy)-7-methoxy-6-quinolinecarboxamide (184 to 266 mg).
These suspensions were filtered to collect 4-(3-chloro-4-(cyclopropylaminocarbonyl)aminophenoxy)-7-methoxy-6-quinolinecarboxamide (141 to 256 mg).

[6] = condition A: 25° C., 75% relative humidity, stored 1 week
[7] = condition B: 25° C., 93% relative humidity, stored 1 week
[8] = desiccator method, 25° C., 75% or 93% relative humidity, 1 week
[9] = condition C: −20° C., brown screw vial, closed, 1 month
[10] = condition D: 25° C., 1000lx, shading with aluminum foil, quartz tube, closed, 1 month
[11] = condition E: 25° C., 1000lx, quartz tube, closed, 1 month
[12] = condition F: 40° C., 75% RH, brown screw vial, open, 1 month
[13] = condition G: 60° C., brown screw vial, closed, 1 month

Which appearance [1, 6] does the source give for `COc1cc2nccc(Oc3ccc(NC(=O)NC4CC4)c(Cl)c3)c2cc1C(N)=O` [Example 1d, 4-(3-chloro-4-(cyclopropylaminocarbonyl)aminophenoxy)-7-methoxy-6-quinolinecarboxamide] here?
The appearance was “light brown”.

What about the water content [1, 6] of the same compound?
Its water content is 1.0 wt %.

And the appearance [1, 7]?
The appearance was “light brown”.

What about the water content [1, 7] of the same compound?
The water content was 1.2 wt %.

What about the crystal transition [1, 8] of the same compound?
The crystal transition was “no perceivable crystal transition”.

What about the hygroscopicity [1, 8] of the same compound?
Its hygroscopicity is “no perceivable hygroscopicitiy”.

And the appearance ([1]; prior to storage)?
Its appearance is “light brown”.

What about the water content ([1]; prior to storage) of the same compound?
The water content was 1.0 wt %.

And the hygroscopicity ([2]; microbalance method, 5-95% relative humidity)?
Its hygroscopicity is “no perceivable hygroscopisity”.

What about the weight change ([2]; within the range of 5-95% of relative humidity, listed as polymorph (A)) of the same compound?
The weight change was 1%.

What about the appearance [3, 9] of the same compound?
The appearance was “light brown”.

And the impurity [3, 9]?
Its impurity is 2.66%.

What about the remaining percent ([3]; condition C: −20° C., brown screw vial, closed, 1 month, condition C is the standard) of the same compound?
The remaining percent was “(100) %”.

And the water content [3, 9]?
Its water content is 1.0 wt %.

What about the appearance [3, 10] of the same compound?
Its appearance is “light brown”.

And the impurity [3, 10]?
The impurity was 2.67%.

What about the remaining percent ([3]; condition D: 25° C., 1000lx, shading with aluminum foil, quartz tube, closed, 1 month, vs condition C standard) of the same compound?
Its remaining percent is 103.3%.

What about the water content [3, 10] of the same compound?
The water content was 0.7 wt %.

And the appearance [3, 11]?
The appearance was “light brown”.

And the impurity [3, 11]?
The impurity was 2.68%.

What about the remaining percent ([3]; condition E: 25° C., 1000lx, quartz tube, closed, 1 month, vs condition C standard) of the same compound?
The remaining percent was 104.3%.

What about the water content [3, 11] of the same compound?
The water content was 0.8 wt %.

And the appearance [3, 12]?
The appearance was “light brown”.

And the impurity [3, 12]?
The impurity was 2.65%.

And the remaining percent ([3]; condition F: 40° C., 75% RH, brown screw vial, open, 1 month, vs condition C standard)?
The remaining percent was 102.3%.

What about the water content [3, 12] of the same compound?
Its water content is 1.2 wt %.

And the appearance [3, 13]?
Its appearance is “light brown”.

What about the impurity [3, 13] of the same compound?
The impurity was 2.65%.

And the remaining percent ([3]; condition G: 60° C., brown screw vial, closed, 1 month, vs condition C standard)?
Its remaining percent is 104.4%.

And the water content [3, 13]?
The water content was 0.5 wt %.

And the appearance ([3]; prior to storage)?
The appearance was “light brown”.

And the impurity ([3]; prior to storage)?
Its impurity is 2.71%.

And the water content ([3]; prior to storage)?
Its water content is 1.0 wt %.

And the “change on storage (solid stability)” value ([3]; stored for 1 month, any storage conditions)?
The value was “no change was observed”.

And the solubility at 3 h ([4]; Britton Robinson buffer, 25 °C, pH 3, aqueous buffer, thermodynamic from solid, pH 3 Britton Robinson buffer, 25-26° C., shaking time 3 hours, read-out: solubility (concentration in filtrate))?
The solubility at 3 h was 77 µg/mL (≈ 180 µM).

And the solubility at 5 h ([4]; Britton Robinson buffer, 25 °C, pH 3, aqueous buffer, thermodynamic from solid, pH 3 Britton Robinson buffer, 25-26° C., shaking time 5 hours, read-out: solubility (concentration in filtrate))?
Its solubility at 5 h is 71 µg/mL (≈ 166 µM).

What about the “pH of the filtrate” value ([4]; shaking time 3 hours) of the same compound?
Its value is 3.123.

What about the “pH of the filtrate” value ([4]; shaking time 5 hours) of the same compound?
The value was 3.107.

And the “crystal form after suspension” value ([5]; 300 mg in DMSO (1.7 mL) and 33% (v/v) acetone-water (0.17, 0.34, 0.51 or 0.85 mL))?
The value was “crystal transition to the polymorph (B) occurred in every case”.

And the “dissolution in DMSO” value ([5]; 300 mg in DMSO (1.7 mL), without 33% acetone-water)?
The value was “most of the polymorph (A) dissolved”.
